Data as given in publication PMC11091072, “Targeting bacterial nickel transport with aspergillomarasmine A suppresses virulence-associated Ni-dependent enzymes” (Nature Communications, 2024).
“And” between values parts separate entries of the source, which are not always exact repeats. Identical values can stand only once. Like-named read-outs stand apart in the source and are kept apart here.

Experiments:
[1] = target: NikA (Klebsiella pneumoniae, UniProt A6TFA3); assay type: binding
[2] = test system: S. aureus; assay type: cell-based, Staphylococcus aureus; details: 200 μM, 24 h
[3] = test system: NikA; assay type: binding, Klebsiella pneumoniae; details: 100 μM
[4] = test system: K. pneumoniae; assay type: cell-based, Klebsiella pneumoniae; details: 200 μM, 24 h exposure
[5] = test system: S. aureus urease activity (whole cell); assay type: cell-based, Staphylococcus aureus; details: S. aureus, artificial urine, 24 h
[6] = test system: HEK293 cells; assay: HEK293 cytotoxicity assay (Cell Titer Glo 2.0)
[7] = test system: K. pneumoniae urease activity (Ni2+ uptake); assay: Competition of Zn-AMA with Ni-(L-His)2 (urease-dependent pH); assay type: cell-based, Klebsiella pneumoniae; details: Zn-AMA 0 μM
[8] = pH 7.5, 2:1 complex, cited from earlier work
[9] = test system: K. pneumoniae; assay type: cell-based, Klebsiella pneumoniae; details: Chelex-treated nitrogen-limited medium

Sequence of NikA (Klebsiella pneumoniae, UniProt A6TFA3) (A6TFA3 entry or part of it): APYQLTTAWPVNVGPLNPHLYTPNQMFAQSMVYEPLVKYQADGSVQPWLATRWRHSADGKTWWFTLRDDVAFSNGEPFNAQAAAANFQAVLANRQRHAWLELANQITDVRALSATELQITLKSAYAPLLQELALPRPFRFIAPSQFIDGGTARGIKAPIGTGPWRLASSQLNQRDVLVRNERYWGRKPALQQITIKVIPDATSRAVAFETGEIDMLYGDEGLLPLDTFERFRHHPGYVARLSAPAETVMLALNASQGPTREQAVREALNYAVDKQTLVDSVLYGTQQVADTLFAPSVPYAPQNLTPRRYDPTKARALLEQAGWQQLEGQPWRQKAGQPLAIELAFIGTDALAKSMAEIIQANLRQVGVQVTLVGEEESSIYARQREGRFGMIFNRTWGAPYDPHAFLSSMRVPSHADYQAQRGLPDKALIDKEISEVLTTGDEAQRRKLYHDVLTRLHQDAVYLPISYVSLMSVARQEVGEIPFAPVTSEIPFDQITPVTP

With `N[C@@H](CN[C@@H](CN[C@@H](CC(=O)O)C(=O)O)C(=O)O)C(=O)O.[Co+2]` [Co-AMA] the “n (stoichiometry, ITC)” value ([1]; 37 °C, pH 7.5) was 1.06, the “∆G” value ([1]; 37 °C, pH 7.5) was -6.9 kcal/mol and the “∆H” value ([1]; 37 °C, pH 7.5) was -10.5 kcal/mol. For the same compound, the “−T∆S” value ([1]; 37 °C, pH 7.5) was 3.6 kcal/mol, the Kd ([1]; read-out: KD for NikA (ITC), 25 mM Tris-HCl, 150 mM NaCl, 0.1% Triton X-100, pH 7.5, 37 °C) was 13 ± 0.4 µM and the “bacterial viability (spot dilutions)” value [2] was “not lethal to bacteria”. For the same compound, the “effect on stability of recombinant NikA” value [3] was “increase NikA’s stability”, the “bacterial viability (spot dilutions)” value [4] was “do not affect bacterial viability” and the “effect on urease activity” value [5] was “inhibited urease activity similarly”. For the same compound, the “HEK 293T cytotoxicity assay raw signal” value ([6]; Co-AMA 0.5 μg/mL) was 622984 and 609603 and 578025, the “HEK 293T cytotoxicity assay raw signal” value ([6]; Co-AMA 1 μg/mL) was 648007 and 588509 and 584554 and the “HEK 293T cytotoxicity assay raw signal” value ([6]; Co-AMA 2 μg/mL) was 653814 and 579149 and 584837. For the same compound, the “HEK 293T cytotoxicity assay raw signal” value ([6]; Co-AMA 4 μg/mL) was 624260 and 594763 and 611086, the “HEK 293T cytotoxicity assay raw signal” value ([6]; Co-AMA 8 μg/mL) was 684397 and 665902 and 598886 and the “HEK 293T cytotoxicity assay raw signal” value ([6]; Co-AMA 16 μg/mL) was 641409 and 612229 and 581248. For the same compound, the “HEK 293T cytotoxicity assay raw signal” value ([6]; Co-AMA 32 μg/mL) was 567905 and 544667 and 548517, the “HEK 293T cytotoxicity assay raw signal” value ([6]; Co-AMA 64 μg/mL) was 578062 and 599992 and 521662 and the “HEK 293T cytotoxicity assay raw signal” value ([6]; Co-AMA 128 μg/mL) was 421336 and 474275 and 462640. The “HEK 293T cytotoxicity assay raw signal” value ([6]; Co-AMA 256 μg/mL) was 411884 and 395016 and 434679, the “HEK 293T cytotoxicity assay raw signal” value ([6]; Co-AMA 512 μg/mL) was 266726 and 265058 and 263860 and the “reduction in HEK293 cell viability” value ([6]; highest test concentration 512 μg/mL, 48 h) was 50%.
In the case of `N[C@@H](Cc1c[nH]cn1)C(=O)O` [L-His, L-histidine, reference compound], the “pH of culture (Zn-AMA v.s. L-His)” value ([7]; L-His 3.12 μM) is reported as 8.06 and 8.1, the “pH of culture (Zn-AMA v.s. L-His)” value ([7]; L-His 6.25 μM) is reported as 8.07 and 8.1 and the “pH of culture (Zn-AMA v.s. L-His)” value ([7]; L-His 12.5 μM) is reported as 7.85 and 7.9. For the same compound, the Kd ([8]; read-out: KD1 for Ni^2+) was 0.64 µM, the Kd ([8]; read-out: KD2 for Ni^2+) was 8.8 µM and the “growth with urea as sole nitrogen source” value [9] was “not viable”.
